# According to PMC7491426 (Frontiers in Chemistry, 2020):
# Values joined by “and” are separate entries in the source; they are usually repeats but may differ in a detail not shown here. Identical values can stand only once. Like-named read-outs stand apart in the source and are kept apart here.
# Columns and labels:
# [1] = molecular target: T1, HNE (human neutrophil elastase) (Homo sapiens, UniProt P08246); assay: HNE inhibition assay (fluorogenic substrate cleavage); type: biochemical
# T1 construct: purchased Calbiochem
# T1 sequence (P08246 30-267): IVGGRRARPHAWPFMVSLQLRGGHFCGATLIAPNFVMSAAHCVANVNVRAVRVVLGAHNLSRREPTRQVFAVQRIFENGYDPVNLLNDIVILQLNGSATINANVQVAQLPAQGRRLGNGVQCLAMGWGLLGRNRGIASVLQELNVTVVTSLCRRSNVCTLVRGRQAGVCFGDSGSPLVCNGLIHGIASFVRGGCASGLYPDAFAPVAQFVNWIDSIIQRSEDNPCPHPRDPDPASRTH
# Experimental: Compounds were dissolved in 100% DMSO at 5 mM stock concentrations. […] HNE inhibition assays were performed in black flat-bottom 96-well microtiter plates. Briefly, a solution containing 200 mM Tris–HCl, pH 7.5, 0.01% bovine serum albumin, 0.05% Tween®-20, and 20 mU/mL of HNE (Calbiochem) was added to wells containing different concentrations of each compound. The reaction was initiated by addition of 25 μM elastase substrate (N-methylsuccinyl-Ala-Ala-Pro-Val-7-amino-4-methylcoumarin, Calbiochem) in a final reaction volume of 100 μL/well. Kinetic measurements were obtained every 30 s for 10 min at 25°C using a Fluoroskan Ascent FL fluorescence microplate reader (Thermo Electron, MA) with excitation and emission wavelengths of 355 and 460 nm, respectively. For all compounds tested, the concentration of inhibitor that caused 50% inhibition of the enzymatic reaction (IC50) was calculated by plotting % inhibition vs. logarithm of inhibitor concentration (at least six points).
# [2] = Spontaneous hydrolysis (chemical stability) in aqueous phosphate buffer; type: physicochemical; conditions: for t1/2 for the spontaneous hydrolysis: 0.05 M phosphate buffer; for t1/2 for the spontaneous hydrolysis / half-life: pH 7.3, 25°C; for half-life: phosphate buffer, pH 7.3, 0.05 M phosphate buffer, read-out: t1/2 for the spontaneous hydrolysis (converted)
# Experimental: Spontaneous hydrolysis of selected derivatives was evaluated at 25°C in 0.05 M phosphate buffer, pH 7.3. Kinetics of compound hydrolysis was monitored by measuring changes in absorbance spectra over time using a SpectraMax ABS Plus microplate spectrophotometer (Molecular Devices, Sunnyvale, CA). Absorbance (At) at the characteristic absorption maxima of each compound was monitored over time until no further absorbance decreases occurred (A∞). Using these measurements, we created semilogarithmic plots of log(At-A∞) vs. time, and k′ values were determined from the slopes of these plots. Half-conversion times were calculated using t1/2 = 0.693/k′.
# Spontaneous hydrolysis rates of the inhibitors were measured in phosphate buffer at pH 7.3 and 25°C.
# [3] = molecular target: T1, HNE (human neutrophil elastase); assay: Persistence of HNE inhibition over extended period of time (16 h); type: biochemical; conditions: monitored during 16 h in the presence of 10 μM inhibitor
# Description: The relatively high enzymatic stability of HNE allowed us to evaluate reversibility of the enzyme inhibition over time.
# [4] = mean ± SD of three independent experiments, read-out: IC50 (HNE inhibitory activity)
# [5] = restated in Table 5 beside docking geometry, read-out: IC50
Structure (SMILES),"IC50 [1, 4]","IC50 [1, 5] [nM]",t1/2 for the spontaneous hydrolysis [2] [h],half-life [2] [h],Remaining HNE activity [3] [%],melting point [°C],Chemical stability in aqueous buffer ([2]; data not shown)
"CCOC(=O)c1cn(S(=O)(=O)c2ccc(OC(=O)C(C)(C)C)cc2)c2ccccc12 [Compound 3a, Ethyl 1-{[4-(pivaloyloxy)phenyl]sulfonyl}-1H-indole-3-carboxylate]",< 100 nM and 30 nM,30,9.6,> 9,5.5 ± 1.8,118 to 121,–
"CCOC(=O)c1cn(S(=O)(=O)c2ccc(OC(=O)C(C)(C)C)cc2)c2ccc([N+](=O)[O-])cc12 [Compound 3b, Ethyl 5-nitro-1-{[4-(pivaloyloxy)pheny]sulfonyl}-1H-indole-3-carboxylate]",25 ± 8 nM,–,–,6.1,20.5 ± 1.7,170 to 173,–
"CC(C)(C)C(=O)Oc1ccc(S(=O)(=O)n2cc(C#N)c3ccccc32)cc1 [Compound 3c, 4-[(3-Cyano-1H-indol-1-yl)sulfonyl]phenyl pivalate]",< 100 nM and 49 nM,–,14.4,> 9,2.0 ± 0.4,133 to 136,–
"CC(C)(C)C(=O)Oc1ccc(S(=O)(=O)n2nc(C#N)c3ccccc32)cc1 [Compound 3d, 4-[(3-Cyano-1H-indazol-1-yl)sulfonyl]phenyl pivalate]",76 ± 11 nM,–,–,6.1,4.3 ± 0.3,155 to 158,–
"CC(C)(C)C(=O)Oc1ccc(S(=O)(=O)n2nc(C#N)c3cc([N+](=O)[O-])ccc32)cc1 [Compound 3e, 4-[(3-Cyano-5-nitro-1H-indazol-1-yl)sulfonyl]phenyl pivalate]",93 ± 27 nM,–,–,0.4,41.7 ± 3.2,183 to 186,–
"CCOC(=O)c1nn(S(=O)(=O)c2ccc(OC(=O)C(C)(C)C)cc2)c2ccccc12 [Compound 3f, Ethyl 1-{[4-(pivaloyloxy)phenyl]sulfonyl}-1H-indazole-3-carboxylate]",< 100 nM and 15 nM,–,10.5,> 9,5.9 ± 1.2,132 to 135,–
"CCOC(=O)c1nn(S(=O)(=O)c2ccc(OC(=O)C(C)(C)C)cc2)c2ccc([N+](=O)[O-])cc12 [Compound 3g, Ethyl 5-nitro-1-{[4-(pivaloyloxy)phenyl]sulfonyl}-1H-indazole-3-carboxylate]",23 ± 10 nM,–,–,1.8,20.1 ± 1.6,185 to 188,–
"CC(C)(C)C(=O)Oc1ccc(S(=O)(=O)n2cc(C#N)c3cccnc32)cc1 [Compound 3i, 4-[(3-Cyano-1H-pyrrolo[2,3-b]pyridin-1-yl]sulfonyl)phenyl pivalate]",55 ± 12 nM,–,–,1.8,2.6 ± 0.5,176 to 179,–
"Cc1noc(-c2cn(S(=O)(=O)c3ccc(OC(=O)C(C)(C)C)cc3)c3ncccc23)n1 [Compound 3j, 4-{[3-(3-Methyl-1,2,4-oxadiazol-5-yl)-1H-pyrrolo[2,3-b]pyridin-1-yl]sulfonyl}phenyl pivalate]",43 ± 14 nM,–,–,2.5,26.2 ± 3.4,164 to 167,–
"CC(C)(C)C(=O)Oc1ccc(S(=O)(=O)n2nc(C(F)(F)F)c3cccnc32)cc1 [Compound 3k, 4-{[3-(Trifluoromethyl)-1H-pyrazolo[3,4-b]pyridin-1-yl]sulfonyl}phenyl pivalate]",135 ± 37 nM,–,–,1.3,–,135 to 138,–
"CC(C)(C)C(=O)Oc1ccc(S(=O)(=O)n2nc(C#N)c3cccnc32)cc1 [Compound 3l, 4-[(3-Cyano-1H-pyrazolo[3,4-b]pyridin-1-yl)sulfonyl]phenyl pivalate]",66 ± 9 nM,–,–,3.5,4.5 ± 1.7,166 to 169,–
"Cc1cccc(C(=O)Nc2nn(S(=O)(=O)c3ccc(OC(=O)C(C)(C)C)cc3)c3ccccc23)c1 [Compound 4, 4-{[3-(3-Methylbenzamido)-1H-indazol-1-yl]sulfonyl}phenyl pivalate]",62 ± 12 nM,–,–,6.4,8.6 ± 1.7,–,–
"CC(C)(C)C(=O)Oc1ccc(S(=O)(=O)n2cc(-c3ccccc3)c(=O)o2)cc1 [Compound 11, 4-[(5-Oxo-4-phenylisoxazol-2(5H)-yl)sulfonyl]phenyl Pivalate]",290 ± 40 nM,–,–,–,–,166 to 168,–
"Cc1c(-c2ccccc2)c(=O)on1S(=O)(=O)c1ccc(OC(=O)C(C)(C)C)cc1 [G, reference compound]",–,–,–,5.8,–,–,excellent chemical stability in aqueous buffer
"CC(C)(C)C(=O)Oc1ccc(S(=O)(=O)Nc2ccccc2C(=O)NCC(=O)O)cc1 [Sivelestat, reference compound]",–,–,–,–,3.7 ± 0.1,–,–

# Further lines, with some results ahead:
"IC50 [1, 4]","IC50 [1, 5] [nM]",t1/2 for the spontaneous hydrolysis [2] [h],half-life [2] [h],Remaining HNE activity [3] [%],melting point [°C],Structure (SMILES),Chemical stability in aqueous buffer ([2]; data not shown)
233 ± 76 nM,–,–,6.8,–,–,"CCOC(=O)c1cn(C)c2ccc(NS(=O)(=O)c3ccc(OC(=O)C(C)(C)C)cc3)cc12 [Compound 7a, Ethyl 1-methyl-5-{[4-(pivaloyloxy)phenyl]sulfonamido}-1H-indole-3-carboxylate]",–
5200 ± 140 nM,5200,–,5.3,–,172 to 175,"CCOC(=O)c1cn(C(=O)c2cccc(C)c2)c2ccc(NS(=O)(=O)c3ccc(OC(=O)C(C)(C)C)cc3)cc12 [Compound 7b, Ethyl 1-(3-methylbenzoyl)-5-{[4-(pivaloyloxy)phenyl]sulfonamido}-1H-indole-3-carboxylate]",–
394 ± 38 nM,–,–,1.5,–,162 to 165,"Cn1nc(C#N)c2cc(NS(=O)(=O)c3ccc(OC(=O)C(C)(C)C)cc3)ccc21 [Compound 7c, 4-[N-(3-Cyano-1-methyl-1H-indazol-5-yl)sulfamoyl]phenyl pivalate]",–
< 100 nM and 86 nM,86,16.5,> 9,9.1 ± 2.5,130 to 133,"CCOC(=O)c1nn(C)c2ccc(NS(=O)(=O)c3ccc(OC(=O)C(C)(C)C)cc3)cc12 [Compound 7d, Ethyl 1-methyl-5-{[4-(pivaloyloxy)phenyl]sulfonamido}-1H-indazole-3-carboxylate]",–
460 ± 120 nM,460,–,5.8,–,180 to 182,"CCOC(=O)c1nn(C(=O)c2cccc(C)c2)c2ccc(NS(=O)(=O)c3ccc(OC(=O)C(C)(C)C)cc3)cc12 [Compound 7e, Ethyl 1-(3-methylbenzoyl)-5-{[4-(pivaloyloxy)phenyl]sulfonamido}-1H-indazole-3-carboxylate]",–
19 ± 5 nM,–,–,2.1,2.2 ± 0.1,116 to 119,"CC(C)(C)C(=O)Oc1ccc(S(=O)(=O)n2ncc(=O)c3ccccc32)cc1 [Compound 9a, 4-[(4-Oxocinnolin-1(4H)-yl)sulfonyl]phenyl pivalate]",–
78 ± 18 nM,–,–,1.9,9.2 ± 2.5,121 to 123,"CC(C)(C)C(=O)Oc1ccc(S(=O)(=O)n2nc(C3CC3)c(=O)c3ccccc32)cc1 [Compound 9b, 4-[(3-Cyclopropyl-4-oxocinnolin-1(4H)-yl)sulfonyl]phenyl pivalate]",–
